The results in this text go back to US6569850B1, “Treatment of multiple sclerosis (MS) and other demyelinating conditions using lofepramine in combination with L-phenylalanine, tyrosine or tyrptophan and possibly a vitamin B12 compound” (priority 1994, dated 2003).

The nature of this test: Treatment of patients with Multiple Sclerosis (case histories and patient series). The test is classed as in vivo, human. To be noted: for Contribution of the component to the therapeutic effect in MS: added to the antidepressant regime. The method, then:
Over 100 other patients have done well on a similar regime, although some have been given other antidepressants either of the traditional tricyclic class, such as amitriptyline or imipramine, or the newer specialist serotonin uptake inhibitors or monoamine oxidase inhibitors. Four particular instances are given in the appendix. […] The doses of LPA have also varied from about 100 mg to up to 5 g per day, but best results are obtained with doses in the region of 500-2000 mg/day. The doses of antidepressants (with the proviso that minimum effective and maximum safe levels are determined according to the drug), lie broadly in the range 10 mg to 200 mg per day.
A specific example of the use of the treatment is 70 mgs (half the therapeutic starting dose for depression) of lofepramine taken each morning with 500 mgs of L-phenylalanine, and 500 mgs of L-phenylalanine taken mid afternoon. For patients with the regular MS attacks of chronic progressive MS it is desirable to include an 8-10 week course of 1000 micrograms of hydroxocobalamin (intra muscular) per week at the start of treatment and then 1000 micrograms every ten days thereafter.

Entries after “also recorded” stand apart in the source; their conditions may differ.

In the case of vitamin B12, the “Contribution of the component to the therapeutic effect in MS” value was “does have a beneficial effect; also recorded: the treatment works best”.
In the case of `N[C@@H](Cc1ccccc1)C(=O)O` [L-phenylalanine (LPA), L-phenylalanine], the “Contribution of the component to the therapeutic effect in MS” value is given as “contributes to the therapeutic effect”.
As for `CN(CCCN1c2ccccc2CCc2ccccc21)CC(=O)c1ccc(Cl)cc1` [lofepramine], the “Comparative therapeutic result among antidepressants in MS treatment” value (antidepressant combined with neurotransmitter precursor) was “best results; also recorded: Most have done best”.
